Data taken from patent publication US20250090510A1, “eIF4G1-eIF1 INHIBITORS AND USE THEREOF” (YEDA RESEARCH AND DEVELOPMENT CO. LTD., priority 2022, published 2025).
Read-outs that look alike come from different tables or passages of the source.

Experiments:
eIF1-eIF4G1 interaction = target: T1, eIF1-eIF4G1 interaction (Homo sapiens, UniProt Q04637); assay: GST pull down of His-eIF1 with GST-eIF4G1; type: binding; conditions: GST-eIF4G1 (aa 675-725) with His-eIF1, vs DMSO
T1 construct: GST-eIF4G1 (aa 675-725) was incubated with His-eIF1; made in house; host or cells: His-eIF1: E. coli BL21
From the text: FIGS. 1A-G: Identification and initial characterization of eIF1-eIF4G1 inhibitors using a high-throughput drug screen (HTS). (1A) A flowchart describing the steps of the recombinant eIF1-eIF4G1 split-RL HTS. (1B) Selection of drugs that inhibit leaky scanning. HEK293T cells were transfected with a short 5′UTR bearing GFP reporter gene described on the top, treated with the indicated HTS hits, and then analyzed by western blot with GFP antibody. US and DS denote upstream and downstream AUG initiation sites, respectively. (1C) A graph showing the change in the ratio of the upstream and downstream AUG following treatment with the indicated drugs. (1D) The chemical structure of the eIF1-eIF4G1 inhibitors, i14G1-10 and i14G1-12. (1E) His-tagged eIF4G1 and His-tagged eIF1 were expressed in BL21 bacteria and purified using nickel NTA beads. Purified His-tagged eIF4G1 and His-tagged eIF1 were incubated with the indicated doses of either i14G1-10 (0-256 μM) or i14G1-12 (0-256 μM) for 5 minutes, followed by fluorescence measurement. For eIF4G1 excitation was at 280 nm and emission was at 350 nm. For eIF1 excitation was at 274 nm and emission was at 304 nm. The data shown represent three independent replicates. IC50 was calculated using Graphpad prism 9. (1F-1G) Western blots of GST pull down. […]

[1] = tested on: HEK293T cells with eIF4G1 knockdown; assay: Puromycin labeling after control or eIF4G1 siRNA; type: cell-based, human; conditions: for IC50: Homo sapiens, HEK-293T, 48 h, 3 h treatment, read-out: IC-50, puromycin labeling
Method: FIGS. 3A-F: i14G1-10 and i14G1-12 inhibit mRNA translation and sensitize cell survival of eIF4G1 and eIF1 depleted cells. (3A) In-vitro translation using rabbit reticulocyte lysate which was pre-incubated with different concentrations of i14G1-10 or i14G1-12 for 10 minutes followed by the addition of capped firefly luciferase mRNA. After 90 minutes at 30° C., the luminescence signal was measured and the IC50 was calculated. The data represents mean±SEM of 6 independent repeats. (3B) HEK293T cells were treated with DMSO (vehicle control), and sub-cytotoxic concentrations of i14G1-10 (20 μM) and i14G1-12 (10 μM) for 3h. Cell lysates were then subjected to sucrose gradient sedimentation to obtain polysome profiles. (3C) HEK293T cells were treated with the indicated concentrations of i14G1-10 and i14G-12 for 3 h, followed by the addition of puromycin (10 μg/ml) for 5 minutes, after which cells were lysed and analyzed by western blot using an anti-puromycin antibody and anti-GAPDH antibody that serves as a loading control. The graph represents the mean±SEM chemiluminescence signal intensity of puromycin labeling normalized to GAPDH of 3 independent experiments. The calculated IC-50 is shown. (3D) HEK293T cells were transfected with either control or eIF4G1 siRNA in the absence or presence of eIF4G1 expression plasmid. As the eIF4G1 siRNA pool is directed against the 3′UTR, which is absent from the eIF4G1 expression plasmid, the exogenous eIF4G1 is resistant to the siRNA. 48 h after transfection, cells were treated with the indicated concentrations of i14G1-10 and i14G-12 for 3 h, followed by a 5 minutes puromycin pulse as described in 3C. The graph represents the mean±SEM chemiluminescence signal intensity of puromycin labeling normalized to GAPDH of 3 independent experiments. The calculated IC-50 is shown. (3E) The graphs represent cell viability of the indicated cell lines in the presence of increasing concentrations of i14G1-10 and i14G1, analyzed by Luminescent Cell Viability Assay. […]

T1 sequence (Q04637 675-725): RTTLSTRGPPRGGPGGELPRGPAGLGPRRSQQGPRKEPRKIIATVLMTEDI

## O=C(/C=C/Sc1ccc(C(F)(F)F)cn1)c1ccccc1 [i14G1-10]
eIF1-eIF4G1 interaction
  association of eIF1 with eIF4G1: decrease in the association of eIF1 with eIF4G1
[1]; eIF4G1 siRNA vs control siRNA
  inhibition of translation upon depletion of eIF4G1: enhanced

## Cn1ccnc1S/C(=C/C=C(C#N)C#N)c1ccc(Cl)cc1 [i14G1-12]
eIF1-eIF4G1 interaction
  association of eIF1 with eIF4G1: decrease in the association of eIF1 with eIF4G1
[1]; control siRNA
  IC50: 5.65 µM
[1]; eIF4G1 siRNA knockdown
  IC50: 80 µM
